How the values were obtained:
[1] = test system: L929 fibroblasts; experiment: TNF-induced apoptosis in L929 fibroblasts with Lac Switch MEKK1COOH expression; assay type: cell-based, murine
Source text: In L929 cells expressing the MEKK1COOH domain, exposure to TNF and IPTG increased the percentage of apoptotic cells to 40%, approximately a 2-fold increase.

[2] = test system: L929 cells; experiment: Neutral red cell viability assay of L929 cells treated with TNFα and/or bFGF; assay type: cell-based, murine
Procedure: In panel A cells were treated with the indicated concentrations of TNFα for 15 hours and were assayed for uptake of neutral red. In panel B cells were untreated (solid bars), treated with 0.5 ng/ml bFGF (dotted bars) or 5.0 ng/ml bFGF (hatched bars) and the indicated concentrations of TNFα for 18 hours. Cell viability was assessed by neutral red assay.
In panel A serum starved L929 cells were untreated or treated for 1 hour at 37° C. with the MEK-1 inhibitor (PD) and then unstimulated or stimulated with bFGF. MAPK activity was measured. In panel B L929 cells were untreated or treated for 1 hour at 37° C. with PD and then were untreated or treated with TNFα alone or in combination with bFGF for 18 hours. Cell viability was assessed by neutral red assay.
Cell lines and culture. L929 cells (ATCC CCL1 were maintained in Dulbecco's modified Eagle's medium with 5% newborn calf serum and 5% bovine calf serum (BCS) supplemented with 100 ug/ml streptomycin and 100 U/ml penicillin. The cells were grown in 10 cm dishes at 37° C. in 7.5% CO2. Cells were made quiescent where indicated by incubation in Dulbecco's modified Eagle's medium and 0.1% bovine serum albumin for 24 h. Recombinant murine TNFα and recombinant human bFGF (147aa) were from R&D Systems, Minneapolis, Minn. Cells were pretreated where indicated with the MEK-1 inhibitor PD#098059 (Parke-Davis Pharmaceutical Corp. Ann Arbor, Mich.) for 1 h at 37° C. Cells were stimulated by incubation with the indicated cytokine or growth factor for various times at 37° C. Stimulation was stopped by rinsing the plates twice with ice cold phosphate buffered saline (PBS) and lysing the cells in the appropriate lysis buffer. Cells were scraped from the plates and nuclei were pelleted for 10 min at 14,000 RPM in a microcentrifuge. JNK assay. JNK activity was measured using a solid state kinase assay in which glutathione S-transferase-c-Jun (1-79) (GST-JUN) cound to glutathione-Sepharose 4B beads was used to affinity purify JNK and then JNK activity was measured in an in vitro kinase assay using the sepharose bound GST-Jun as a substrate (Hibi, M., et al. (1993) Genes & Development 7:2135-2148). Stimulated or unstimulated cells were lysed in 0.5% Nonidet P-40, 20 mM HEPES pH 7.2, 100 mM NaCl, 2 mM dithiothreitol, 1 mM EDTA, 1.0 mM phenylmethylsulfonylfluoride, 1 μg/ml aprotinin and the nuclei pelleted. Lysates were normalized for protein content. JNK was affinity purified from 50-100 μg of cell lysate by the addition of 10 ul of GST-Jun sepharose slurry (2 μg GST-Jun). Binding to GST-Jun efficiently isolates the two major forms of JNK (p45 and p55) and under the conditions used JNK isolation was linear for 10-250 μg of cell lysate. The lysates were rotated at 4° C. for 1-3 h. Beads were washed twice in lysis buffer and then twice in PAN (10 mM PIPES, pH 7.0, 100 mM NaCl, 21 μg/ml aprotinin). Kinase reactions were carried out at 30° C. for 15 min in 20 mM Hepes pH 7.2, 20 mM β-glycerophosphate, 10 mM p-nitrophenyl phosphate, 10 mM MgCl2, 1 mM dithiothreitol, 50 μm sodium vanadate, 10 μCi γ^32P-ATP 4300 Ci/mmole. The kinase reaction was linear from 0-30 min. MAPK Assay MAPK activity was measured exactly as described previously (Gardner, A. M., et al. (1994) Meth. Enzymol. 238:258-270) with the exception that MonoQ FPLC fractionation was replaced by step elution from a DEAE-Sephacel column using 0.5 M NaCl in loading buffer. The eluate was assayed in triplicate using the epidermal growth factor receptor 662-681 peptide (EGFR662-681) as a selective substrate for MAPK activity (Heasley, L. E., et al. (1994) American Journal of Physiology (Renal Fluid Electrolyte Physiol. 36) 267:F366-F373). […]

[3] = test system: MEKK1; experiment: Cellular localization of MEKK1 in Swiss 3T3 cells, antibody staining; assay type: cell-based; conditions: serum starved Swiss 3T3 cells, 10 minutes
Source text: (§1) Cells were fixed and stained with an antibody specifically recognizing either MEKK1 or MEKK2. Secondary FITC-conjugated anti-rabbit IgG antibody was used for staining.

[4] = test system: MEKK2; experiment: Cellular localization of MEKK2 in Swiss 3T3 cells, antibody staining; assay type: cell-based; conditions: serum starved Swiss 3T3 cells, 10 minutes
Source text: as §1

Substance	percentage of apoptotic cells, control L929 cells ([1]; TNF exposure, presence or absence of IPTG)	level of apoptotic cells, L929 cells expressing the kinase inactive mutant ([1]; exposure to TNF)	increase of percentage of apoptotic cells, MEKK1COOH cells versus control ([1]; exposure to TNF and IPTG)	percentage of apoptotic cells, L929 cells expressing the MEKK1COOH domain ([1]; exposure to TNF and IPTG)	time required to induce a similar level of L929 cell death ([2]; 1 ng/ml TNFα)	L929 cells being apoptotic ([2]; 10 ng/ml TNFα, 15 hr)	cellular localization of MEKK1 [3]	cellular localization of MEKK2 [4]	effect on TNFα-mediated cell death ([2]; L929 cells)	cell number in the absence of TNFα ([2]; bFGF alone)
TNFα	approximately 20%	did not increase the level of apoptotic cells above levels seen in controls	~2 fold	40%	24 to 48 h	greater than 40%	had no effect on the cellular localization of MEKK1	induced a translocation of MEKK2 to the plasma membrane	–	–
bFGF: recombinant human bFGF (147aa), basic fibroblast growth factor	–	–	–	–	–	–	–	–	effective at blocking	did not measurably increase cell number
